The values below come from patent publication US20150105252A1, “SUBSTITUTED PYRAZOLES AS HERBICIDES” (E I DU PONT DE NEMOURS AND COMPANY, priority 2013, published 2015).

One assay has as its system rice. The assay is described as follows: Test C flooded paddy test. The class given is in vivo, Oryza sativa. The conditions noted are these: Flood. The method, boiled down:
(§1)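 Pots were flooded to 3 cm above the soil surface at treatment, compound applied directly to the paddy water, and that depth held throughout. Plants were kept in a greenhouse for 13 to 15 days, then visually rated against untreated controls.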

The test system of a further assay is ducksalad. Description: Test C flooded paddy test. The class given is in vivo, Heteranthera limosa. The settings on record: Flood. The procedure, abridged: as §1
Setting [1] is: 31 g ai/ha, scale 0 to 100 (0 no effect, 100 complete control).
The mark [2] stands for this setting: 62 g ai/ha, scale 0 to 100 (0 no effect, 100 complete control).
The mark [3] stands for this setting: 125 g ai/ha, scale 0 to 100 (0 no effect, 100 complete control).

For `CCCNC(=O)c1cc(CCCl)n(Cc2ccnc(C(F)(F)F)c2)n1` [Compound 145], the “Plant response rating, Rice” value in the assay with rice (setting [1]) is recorded as 0; in the assay with rice (setting [2]), 20; in the assay with rice (125 g ai/ha, scale 0 to 100) it was 25; with rice (250 g ai/ha, scale 0 to 100), 40. The “Plant response rating, Ducksalad” value with ducksalad (setting [1]) is reported as 100; with ducksalad (setting [2]) it was 100; in the assay on ducksalad (125 g ai/ha, scale 0 to 100) it was 100; in the assay on ducksalad (250 g ai/ha, scale 0 to 100) it was 100.
For the compound `CCONC(=O)c1cc(OCC)n(Cc2ccnc(C(F)(F)F)c2)n1` [Compound 195], the “Plant response rating, Rice” value turned out to be 0 in the assay on rice (setting [1]); 0 with rice (setting [2]); 0 in the assay on rice (setting [3]); 20 in the assay with rice (250 g ai/ha, scale 0 to 100). Besides, the “Plant response rating, Ducksalad” value worked out at 0 in the assay with ducksalad (setting [1]); 20 in the assay on ducksalad (setting [2]); 85 in the assay on ducksalad (setting [3]); 85 with ducksalad (250 g ai/ha, scale 0 to 100).
As for `CCc1cc(C(=O)NC2CC2)nn1Cc1ccnc(OCC(F)(F)F)c1` [Compound 200], the “Plant response rating, Rice” value came to 0 in the assay on rice (setting [1]); 0 in the assay on rice (setting [2]); 15 in the assay on rice (setting [3]); 20 with rice (250 g ai/ha, scale 0 to 100). The “Plant response rating, Ducksalad” value was found to be 30 with ducksalad (setting [1]); 30 in the assay on ducksalad (setting [2]); 100 in the assay on ducksalad (setting [3]); 100 in the assay on ducksalad (250 g ai/ha, scale 0 to 100).
With `CCc1cc(C(=O)NC2CC2)nn1Cc1cc(C(F)(F)C(F)(F)F)nn1C` [Compound 226], the “Plant response rating, Rice” value in the assay with rice (setting [1]), in the assay on rice (setting [2]) and in the assay with rice (setting [3]) was 0 each time. Besides, the “Plant response rating, Ducksalad” value with ducksalad (setting [1]) was determined as 30; in the assay with ducksalad (setting [2]), 60; in the assay on ducksalad (setting [3]), 75.
